In patent US20210228484A1, “VETERINARY THICK GEL COMPOSITION OF HIGH PALATABILITY CONTAINING ANTIOXIDANTS TO DECREASE SARCOPENIA, OSTEOPENIA AND DNA DAMAGE FROM OXIDATIVE STRESS IN DOGS, AND PROCEDURE FOR ITS OBTENTION” (priority 2018, published 2021):

Test system: oxidative stress
Assay: Overall effect of the antioxidant dietary complement on oxidative stress biomarkers in dogs
Format: in vivo
Details: provided alone
Description: The evaluated biomarkers let us assure that the provision of antioxidants, particularly the mixtures of at least two antioxidants selected from Resveratrol. Pterostilbene and Vitamin E, as a dietary complement had the following effects. 1) decrease of oxidative stress, 2) highly significant decrease in the loss of skeletal muscle (CPK), 3) highly significant decrease in the loss of bone mass (ALP), and 4) decrease of 12-15% in the loss of (8(OH)dG) DNA. […] It is also possible to observe that the Vitamin E that was provided alone produced a lesser effect, compared to that of the mixture of two antioxidants that were jointly provided.

## CC(=O)Oc1c(C)c(C)c2c(c1C)CCC(C)(CCCC(C)CCCC(C)CCCC(C)C)O2 (racemic) [Vitamin E, DL-alpha tocopherol acetate]
  effect on the biomarkers compared to the mixture of two antioxidants: lesser effect
